Reference: patent US8629116B2, “Method for inducing a TRIF-bias” (priority 2008, dated 2014)

What was measured:
MonoMac6 (MM6) cells = assay: NFκB nuclear translocation in MonoMac6 cells (ImageStream); assay type: cell-based, human
From the text: MonoMac6 Cells in exponential growth are stimulated with increasing concentrations of AGP diluted in 2% glycerol vehicle for the indicated time points. Immediately fixed cells (in 2% paraformalin overnight) are stained with the primary antibodies, anti-NFκB(p65) (SantaCruz Biotechnology, SantaCruz, Calif.) and anti-IRF3 (BD Biosciences, San Jose, Calif.), in permeabilization buffer (PBS, 2% FBS, 0.1% TritonX) followed by secondary antibodies, anti-Rabbit FITC (Jackson Labs, Bar Harbor, Me.), anti-mouse PE (BD Biosciences, San Jose, Calif.). Similarity scores of signaling protein localization with the nuclear stain DRAQ5 (Alexis Biochemicals (San Diego, Calif.) are used for ImageStream analysis of Nuclear Translocation as previously described {George, 2006 32669/id}. A minimum of 3000 cells are collected and analyzed for each condition tested.
Interferon […] Factor-3 (IRF-3) is a transcription factor activated downstream of the TRIF-dependent TLR4 signaling pathway (Yamamoto et al. 640-43). IRF-3 phosphorylation leads to IRF-3 dimerization, nuclear translocation, and induction of transcription of Type I interferon (IFNβ) and interferon-inducible genes (Honda, Takaoka, and Taniguchi 349-60; Tailor, Tamura, and Ozato 134-40). The ImageStream is capable of measuring nuclear translocation of both NFκB and IRF-3 by quantification of co-localization between the labeled transcription factors and the nucleus of cells stained with a nucleus-specific dye ([…]) (Beum et al. 90-99; George et al. 117-29; Arechiga et al. 7800-04).
In order to compare signaling initiated by CRX-527 and CRX-547, the induction of nuclear translocation of NFκB and IRF-3 by CRX-527 and CRX-547 treatment is compared in the human monocytic cell line, MonoMac6 (MM6) using ImageStream analysis.
To determine whether CRX-547 is able to antagonize NFκB nuclear translocation in cells treated with constant CRX-527, MM6 cells are stimulated for 20 minutes, 35 minutes and 2 hrs with increasing doses of CRX-547 (FIG. 12). When AGPs are added at the same time, CRX-547 antagonized NFκB nuclear translocation induced by CRX-527 at the highest doses. When CRX-547 is constant and spiked with CRX-527 into the assay, CRX-527 stimulation is able to overcome the maximal effect of NFκB nuclear translocation with CRX-547 alone.

[1] = Rabbit toxicology study by IM route; assay type: in vivo; settings: for hematology: granulocytosis: day 9 (2 days post-2°), resolves by day 21; for gross pathology: white discoloration of muscle along needle track and at site of injection: low dose (5 μg); for overall impression of toxicity: n=3 rabbits/group
Experimental: Groups of three rabbits (NZW—Western Oregon Rabbit Company, Philomath, Oreg.) are vaccinated with 1 mL diluted AGP, or MPL control, IM on days 0, 7 and 14. Two doses of AGP are evaluated. All animals are monitored for body weight, temperature, clinical condition and draize score. Animals are sacrificed one week post final administration. Blood is collected pretreatment, two days after the 2nd vaccination and upon sacrifice for hematology and clinical chemistry. Histopathology of injection sites and major organs are conducted according to standard practices. All animals are used in accordance with guidelines established by the Public Health Service and the Institutional Animal Care and Use Committee at GlaxoSmithKline Biologicals, Hamilton, Mont.
Toxicity of CRX-527, 524, 547 and compound 1 is evaluated in rabbits receiving AGP only by the intramuscular (IM) route. Groups of three rabbits are vaccinated with 1 mL diluted AGP, or MPL control, IM on days 0, 7 and 14. Two doses of AGP are evaluated: high (25 μg) and low (5 μg). All animals are monitored for body weight, temperature, clinical condition and draize score. Animals are sacrificed one week post final administration. Blood is collected pretreatment, two days after the 2nd vaccination and upon sacrifice for hematology and clinical chemistry. Histopathology of injection sites and major organs are conducted.

human TLR4, MD-2, CD14 = biological target: T1, human TLR4, MD-2, CD14 (Homo sapiens, UniProt O00206+Q9Y6Y9); assay: NF-κB reporter activity in HEK293 cells transfected with human TLR4/MD-2/CD14; assay type: cell-based; settings: HEK293 huTLR4/huMD-2/huCD14, NFκB reporter plasmid
T1 construct: host or cells: HEK293-hTLR4/hMD2/hCD14
Experimental: HEK293-hTLR4/hMD2/hCD14 cells are seeded in 12-well plates (4×10^5 cells/well) and are cultured until 40-60% confluent (2-3 days). The cells are transfected for 24 hours with 100 ng of NF-κB reporter construct expressing secreted human embryonic alkaline phosphatase under the control of an engineered ELAM promoter with five NF-κB sites (pNiFty2-SEA-InvivoGen; San Diego, Calif.) and a transfection control plasmid constitutively expressing a thymidine kinase promoter driven luciferase (Promega). […] After transfection, cells are stimulated for 14 h with TLR4 agonists, and the cleared supernatant is assayed for SEAP activity (SEAP Reporter Assay Kit-InvivoGen) to quantify NF-κB activation and luciferase activity (Promega) to normalize for transfection efficiency following supplied protocols.

[2] = tested on: RAW264.7 (macrophage) cells; assay: TNFα and IP-10 production in RAW264.7 cells; assay type: cell-based, mouse
From the text: To better compare and confirm the similarity of potency between the L and D isomers in murine cells, RAW264.7 (macrophage) cells are stimulated over a wider dose range with CRX-527, CRX-547, compounds 1a and 1b and the supernatants assayed for MyD88 (TNFα) and TRIF-dependent (IP-10) production.
Since MyD88-dependent signaling after TLR4 stimulation should be earlier than TRIF dependent signaling, and because both MyD88 and TRIF can induce downstream TNFα production due to activation of the NFκB pathway, an earlier timepoint is tested for cytokine production after stimulation with the L and D isomers.

T1 sequence (O00206 24-839): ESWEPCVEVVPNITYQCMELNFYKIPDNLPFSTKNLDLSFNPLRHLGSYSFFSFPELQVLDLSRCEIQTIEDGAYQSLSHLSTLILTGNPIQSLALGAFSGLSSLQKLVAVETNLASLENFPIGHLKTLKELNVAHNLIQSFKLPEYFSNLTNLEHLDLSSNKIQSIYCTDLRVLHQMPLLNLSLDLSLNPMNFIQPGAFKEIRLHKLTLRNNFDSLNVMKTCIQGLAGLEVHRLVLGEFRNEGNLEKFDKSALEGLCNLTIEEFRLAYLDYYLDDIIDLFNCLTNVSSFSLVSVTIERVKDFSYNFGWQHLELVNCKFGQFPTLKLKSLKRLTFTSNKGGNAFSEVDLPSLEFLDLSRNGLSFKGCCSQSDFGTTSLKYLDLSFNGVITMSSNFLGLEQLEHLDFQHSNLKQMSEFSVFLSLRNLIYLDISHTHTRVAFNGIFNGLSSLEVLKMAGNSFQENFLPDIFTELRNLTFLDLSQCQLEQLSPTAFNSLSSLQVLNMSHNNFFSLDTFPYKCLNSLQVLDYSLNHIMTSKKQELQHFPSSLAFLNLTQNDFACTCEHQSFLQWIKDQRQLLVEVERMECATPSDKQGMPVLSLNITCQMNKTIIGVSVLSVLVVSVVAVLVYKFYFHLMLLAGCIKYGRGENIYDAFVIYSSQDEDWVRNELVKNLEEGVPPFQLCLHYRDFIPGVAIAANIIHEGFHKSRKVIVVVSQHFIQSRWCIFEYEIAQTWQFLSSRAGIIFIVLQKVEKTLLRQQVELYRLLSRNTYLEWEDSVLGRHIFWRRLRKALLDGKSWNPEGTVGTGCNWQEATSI
T1 sequence (Q9Y6Y9 19-160): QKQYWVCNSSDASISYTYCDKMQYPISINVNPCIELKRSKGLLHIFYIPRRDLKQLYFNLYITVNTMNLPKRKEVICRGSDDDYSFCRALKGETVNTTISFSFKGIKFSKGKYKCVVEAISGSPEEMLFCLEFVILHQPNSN

Row | Structure (SMILES) | earliest NFκB nuclear translocation post-stimulation (MonoMac6 (MM6) cells; MM6 cells) | NFκB nuclear translocation (MonoMac6 (MM6) cells; MM6 cells, by thirty minutes) | injection site histopathology (myositis) ([1]; high dose) | hematology: granulocytosis ([1]; high dose) | gross pathology: white discoloration of muscle along needle track and at site of injection [1] | hematology: granulocytosis ([1]; low dose) | overall impression of toxicity [1] | NF-κB promoter/reporter activation (human TLR4, MD-2, CD14) | potency for IP-10 production ([2]; four hours of stimulation) | potency for TNFα production ([2]; four hours of stimulation) | potency for IP-10 production ([2]; wider dose range) | potency for TNFα production ([2]; wider dose range) | effect on NFκB nuclear translocation induced by CRX-527 (MonoMac6 (MM6) cells; MM6, AGPs added at the same time, highest doses of CRX-547) | NFκB nuclear translocation, threshold never exceeded (MonoMac6 (MM6) cells; MM6 cells, 5-120 minutes) | injection site histopathology (myositis) ([1]; low dose)
1 | CCCCCCCCCCCC(CC(=O)NC(COC1OC(CO)C(OP(=O)(O)O)C(OC(=O)CC(CCCCCCCCCCC)OC(=O)CCCCCCCCC)C1NC(=O)CC(CCCCCCCCCCC)OC(=O)CCCCCCCCC)C(=O)O)OC(=O)CCCCCCCCC.CCN(CC)CC (centres unmarked) [CRX-527] | ≤ 5 min | ~100% | most consistent and greatest | trend of granulocytosis | seen | trend of granulocytosis | mildly toxic | significantly higher activation | slightly more potent | slightly more potent | more potent | more potent | – | – | –
2 | CCCCCCCCCCCC(CC(=O)NC(COC1OC(CO)C(OP(=O)(O)O)C(OC(=O)CC(CCCCCCCCCCC)OC(=O)CCCCCCCCC)C1NC(=O)CC(CCCCCCCCCCC)OC(=O)CCCCCCCCC)C(=O)O)OC(=O)CCCCCCCCC.CCN(CC)CC (centres unmarked) [CRX-547] | – | – | – | – | not | – | minimally toxic | less NFκB reporter activity | – | – | less potent | less potent | antagonized | around 50% | no muscle pathology
